According to patent US5686486A, “4-hydroxy-benzopyran-2-ones and 4-hydroxy-cycloalkyl[b]pyran-2-ones useful to treat retroviral infections” (priority 1995, dated 1997):
pIC50: −log10 of the molar value. Where a name gives a salt, the structure may show the parent alone. Read-outs that look alike come from different tables or passages of the source.

Molecular target: HIV-1 protease (Human immunodeficiency virus type 1 group M subtype B, UniProt P04585)
Experiment: biochemical
Details: for inhibition at 1 µM: read-out: HIV-1 Protease % Inhib, dose 1.000 uM; for inhibition at 100 µM: read-out: HIV-1 Protease % Inhib, dose 100.000 uM; for inhibition at 0.123 µM: read-out: HIV-1 Protease % Inhib, dose 0.123 uM
In short: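 Percent inhibition derived from fluorescent cleavage product separated by filtration after streptavidin-bead capture of intact biotin/FITC substrate. Reaction: enzyme (10 μl, 0.1 μM stock) with substrate (20 μl, 0.2 μM stock) and compound, 1 h at room temperature in dark, pH 5.5 acetate buffer with 1.0 M NaCl and 0.05% NP-40.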

[1] = read-out: HIV-1 Protease % Inhib, dose 10.000 uM
[2] = read-out: HIV-1 Protease % Inhib, dose 0.370 uM
[3] = read-out: HIV-1 Protease % Inhib, dose 1.100 uM
[4] = read-out: HIV-1 Protease % Inhib, dose 3.300 uM
[5] = read-out: HIV-1 Protease % Inhib, dose 30.000 uM
[6] = dose 1.100 uM, read-out: HIV-1 Protease % Inhib
[7] = dose 3.300 uM, read-out: HIV-1 Protease % Inhib
[8] = dose 10.000 uM, read-out: HIV-1 Protease % Inhib
[9] = dose 30.000 uM, read-out: HIV-1 Protease % Inhib
[10] = dose 0.370 uM, read-out: HIV-1 Protease % Inhib

Row | SMILES | inhibition at 1 µM | inhibition at 10 µM [1] | inhibition at 100 µM | inhibition at 0.123 µM | inhibition at 0.37 µM [2] | inhibition at 1.1 µM [3] | inhibition at 3.3 µM [4] | inhibition at 30 µM [5] | also measured
1 | CCC(c1cccc(NC(=O)CNC(=O)OC(C)(C)C)c1)c1c(O)c2ccccc2oc1=O (centres unmarked) [Example 43, Coumarin, 4-hydroxy-3-[1-[3-[[[[(1,1-dimethylethoxycarbonyl)amino]methyl]carbonyl]amino]phenyl]propyl]-] | 28.4% | 103% | 122% |  |  |  |  |  | pIC50 (HIV-1 Protease IC50): 5.68
2 | CC(C)S(=O)(=O)Nc1cccc(C(c2c(O)c3c(oc2=O)CCCCCC3)C2CC2)c1 (centres unmarked) [Example 328, N-[3-[Cyclopropyl(5,6,7,8,9,10-hexahydro-4-hydroxy-2-oxo-2H-cycloocta[b]pyran-3-yl)methyl]phenyl]-2-propanesulfonamide] |  | 114% |  | 11.9% | 46% | 86.6% | 106% | 111% | 
3 | O=c1oc2c(c(O)c1C(c1cccc(NS(=O)(=O)c3cccc(Cl)c3Cl)c1)C1CC1)CCCCCC2 (centres unmarked) [Example 285, 2,3-Dichloro-N-[3-[cyclopropyl(5,6,7,8,9,10-hexahydro4-hydroxy-2-oxo-2H-cycloocta[b]pyran-3-yl)methyl]phenyl]-benzenesulfonamide] |  | 97.7% |  | 37.6% | 73.8% | 84.6% | 95% | 91.8% | 
4 | Nc1ccc(C(c2c(O)c3c(oc2=O)CCCCCC3)C2CC2)cc1 (centres unmarked) [Example 471, 3-[(4-Aminophenyl)cyclopropylmethyl]-5,6,7,8,9,10-hexahydro-4-hydroxy-2H-cycloocta[b]pyran-2-one] |  |  |  |  |  |  |  |  | inhibition at 1.1 µM [6]: 37.5%; inhibition at 3.3 µM [7]: 75.6%; inhibition at 10 µM [8]: 102%; inhibition at 30 µM [9]: 110%
5 | CCC(c1ccccc1)c1c(O)c2ccc(OC(C)C)cc2oc1=O (stereo not drawn) [Example 81, Coumarin, 3-(α-ethylbenzyl)-4-hydroxy-7-(1-methylethoxy)-] | 62% | 75.6% | 85.3% |  |  |  |  |  | pIC50 (HIV-1 Protease IC50): 5.43
6 | CCCC(c1cccc(NS(=O)(=O)c2ccc(F)cc2)c1)c1c(O)c2c(oc1=O)CCCCCC2 (centres unmarked) [Example 430, Benzenesulfonamide, N-[3-[1-(5,6,7,8,9,10-hexahydro-4-hydroxy-2-oxo-2H-cycloocta[b]pyran-3-yl)butyl]phenyl]-4-fluoro-] |  | 105% |  | 72.3% | 98.2% | 96.6% | 104% | 97.3% | 
7 | CCC(CCCc1ccccc1)c1c(O)c2ccccc2oc1=O (centres unmarked) [Example 156, 3-(1-Ethyl4-phenyl-butyl)-4-hydroxy-chromen-2-one] | 17.1% | 33.6% | 63.7% |  |  |  |  |  | 
8 | CCC(c1cccc(NC(=O)CCc2c[nH]c3ccccc23)c1)c1c(O)c2ccccc2oc1=O (stereo not drawn) [Example 79, Coumarin, 3-[α-ethyl-[[[2-(indol-3-yl)ethyl]carbonyl]amino]benzyl]-4-hydroxy-] | < 10% | 61% | 80.9% |  |  |  |  |  | pIC50 (read-out: HIV-1 Protease IC50): 4.88
9 | O=C(O)c1ccc(S(=O)(=O)Nc2cccc(C(c3c(O)c4c(oc3=O)CCCCCC4)C3CC3)c2)cc1 (centres unmarked) [Example 276, 4-[[[3-[Cyclopropyl(5,6,7,8,9,10-hexahydro-4-hydroxy-2-oxo-2H-cycloocta[b]pyran-3-yl)methyl]phenyl]amino]sulfonyl]-benzoic acid] |  | 112% |  | 53.4% | 92.8% | 99.3% | 94.7% | 124% | 
10 | CCC(c1cccc(NC(=O)Cc2ccccc2)c1)c1c(O)c2ccccc2oc1=O (centres unmarked) [Example 55, Coumarin, 4-hydroxy-3-[1-[3-[[(phenylmethyl)carbonyl]amino]phenyl]propyl]-] | < 10% | < 10% | 72% |  |  |  |  |  | 
11 | COc1cccc(OC)c1S(=O)(=O)Nc1cccc(C(c2c(O)c3c(oc2=O)CCCCCC3)C2CC2)c1 (centres unmarked) [Example 334, N-[3-[Cyclopropyl(5,6,7,8,9,10-hexahydro-4-hydroxy-2-oxo-2H-cycloocta[b]pyran-3-yl)methyl]phenyl]-2,6-dimethoxy-benzenesulfonamide] |  |  |  |  |  |  |  |  | inhibition at 0.37 µM [10]: 13.6%; inhibition at 1.1 µM [6]: 42.3%; inhibition at 3.3 µM [7]: 69%; inhibition at 10 µM [8]: 87.6%; inhibition at 30 µM [9]: 89.5%
12 | CC(C)C(c1cccc(NC(=O)OCc2ccccc2)c1)c1c(O)c2c(oc1=O)CCCCCC2 (centres unmarked) [Example 370, [3-[1-(5,6,7,8,9,10-Hexahydro-4-hydroxy-2-oxo-2H-cycloocta[b]pyran-3-yl)-2-methylpropyl]phenyl]-carbamic acid, phenylmethyl ester] |  |  |  |  |  |  |  |  | inhibition at 10 µM [8]: 19.4%; inhibition at 30 µM [9]: 33.1%
13 | CCC(c1cccc(C#N)c1)c1c(O)c2ccccc2oc1=O (centres unmarked) [Example 98, Coumarin, 3-[1-(3-cyanophenyl)propyl]-4-hydroxy-] | < 10% | < 10% | 74.5% |  |  |  |  |  | 
14 | O=c1oc2c(c(O)c1C(c1ccc(CNS(=O)(=O)c3ccc(F)cc3)o1)C1CC1)CCCCCC2 (centres unmarked) [Example 390] |  |  |  |  |  |  |  |  | inhibition at 1.1 µM [6]: 13.1%; inhibition at 3.3 µM [7]: 43.6%; inhibition at 10 µM [8]: 66.4%; inhibition at 30 µM [9]: 85.2%
15 | O=c1oc2c(c(O)c1C(c1cccc(NC(=S)Cc3ccccc3)c1)C1CC1)CCCCCC2 (centres unmarked) [Example 368, Benzeneethanethioamide, N-[3-[cyclopropyl(5,6,7,8,9,10-hexahydro-4-hydroxy-2-oxo-2H-cycloocta[b]pyran-3-yl)methyl]phenyl]-] |  |  |  |  |  |  |  |  | inhibition at 1.1 µM [6]: 17.4%; inhibition at 3.3 µM [7]: 54.5%; inhibition at 10 µM [8]: 77.8%; inhibition at 30 µM [9]: 86.8%
16 | CC(C)(C)OC(=O)NCCCC(=O)Nc1cccc(C(c2c(O)c3c(oc2=O)CCCCCC3)C2CC2)c1 (centres unmarked) [Example 201, Carbamic acid, [4-[[3-[cyclopropyl(5,6,7,8,9,10-hexahydro,-hydroxy-2-oxo-2H-cycloocta[b]pyran-3-yl)methyl]phenyl]amino]-4-oxybutyl]-, 1,1-dimethylethyl ester] |  | 100% |  | 31.2% | 60.1% | 80% | 95.4% | 107% | 
17 | O=c1oc2c(c(O)c1C(c1cccc(NS(=O)(=O)c3cccc4cccnc34)c1)C1CC1)CCCCCC2 (centres unmarked) [Example 263, N-[3-[Cyclopropyl(5,6,7,8,9, 10-hexahydro4-hydroxy-2-oxo-2H-cycloocta[b]pyran-3-yl)methyl]phenyl]-8-quinolinesulfonamide] |  | 108% |  | 82.9% | 89.9% | 95.7% | 98.7% | 98.3% | 
18 | O=c1oc2c(c(O)c1C(c1ccccc1)C1CC1)CCCCC2CC1CCCOC1 (centres unmarked) [Example 187, 3-(Cyclopropylphenylmethyl)-6,7,8,9-tetrahydro-4-hydroxy-9-[(tetrahydro-2H-pyran-3-yl)methyl]-cyclohepta[b]pyran-2(5H)-one] |  |  |  |  |  |  |  |  | inhibition at 0.37 µM [10]: 10.6%; inhibition at 1.1 µM [6]: 32.9%; inhibition at 3.3 µM [7]: 68%; inhibition at 10 µM [8]: 90%; inhibition at 30 µM [9]: 90.2%
19 | O=c1oc2c(c(O)c1C(c1cccc(NS(=O)(=O)c3cc(Cl)cc(Cl)c3)c1)C1CC1)CCCCCC2 (centres unmarked) [Example 288, 3,5-Dichloro-N-[3-[cyclopropyl(5,6,7,8,9,10-hexahydro-4-hydroxy-2-oxo-2H-cycloocta[b]pyran-3-yl)methyl]phenyl]-benzenesulfonamide] |  | 105% |  | 46.9% | 79.1% | 90.5% | 92.9% | 101% | 
20 | O=c1oc2ccccc2c(O)c1CCc1ccccc1 [Example 1, 4-Hydroxy-3-phenethylcoumarin] |  | 15.3% | 66.9% |  |  |  |  |  | inhibition at 20 µM (read-out: HIV-1 Protease % Inhib, dose 20.000 uM): 51.6%; inhibition at 200 µM (read-out: HIV-1 Protease % Inhib, dose 200.000 uM): 92.8%
21 | O=c1oc2c(c(O)c1C(c1cccc(NS(=O)(=O)c3cccc(Cl)c3)c1)C1CC1)CCCCCC2 (centres unmarked) [Example 289] |  | 95.3% |  | 63.7% | 80% | 91.1% | 97.3% | 101% | 
22 | CCC(c1cccc(NC(=O)CCN)c1)c1c(O)c2c(oc1=O)CCCCCC2 (centres unmarked) [Example 220, Propanamide, 3-amino-N-[3-[1-(5,6,7,8,9,10-hexahydro4-hydroxy-2-oxo-2H-cycloocta[b]pyran-3-yl)propyl]phenyl]-, monohydrochloride] |  |  |  |  |  |  |  |  | inhibition at 1.1 µM [6]: 25.2%; inhibition at 3.3 µM [7]: 63.6%; inhibition at 10 µM [8]: 94%; inhibition at 30 µM [9]: 101%
23 | CCC(c1cccc(NC(=O)C2CCCN2C(=O)OC(C)(C)C)c1)c1c(O)c2ccccc2oc1=O (centres unmarked) [Example 59, 1-Pyrrolidinecarboxylic acid, 2-[[[3-[1-(4-hydroxy-2-oxo-2H-1-benzopyran-3-yl)propyl]phenyl]amino]carbonyl]-, 1,1-dimethylethyl ester] | < 10% | 21.5% | 82.8% |  |  |  |  |  | 
24 | CCC(c1ccccc1)c1c(O)c2ccc(Cl)cc2oc1=O (centres unmarked) [Example 92, Coumarin, 7-chloro-4-hydroxy-3-(1-phenylpropyl)-] | < 10% | 67.8% | 113% |  |  |  |  |  | 
